Measurements from US20240246977A1, “DEGRADATION OF BRUTON'S TYROSINE KINASE (BTK) BY CONJUGATION OF BTK INHIBITORS WITH E3 LIGASE LIGAND AND METHOD OF USE” (BeiGene Switzerland GmbH, priority 2021, published 2024).
pIC50: −log10 of the molar value. Like-named read-outs stand apart in the source and are kept apart here.

Tests used:
BTK = BTK (Homo sapiens, UniProt Q06187); assay: BTK cell degradation in TMD-8 cells, HTRF assay; assay type: cell-based; parameters: endogenous in cells; host or cells: TMD-8 cells; settings: 6 h treatment, IC50 (DC50) of BTK degradation
Chain of BTK (Q06187 whole entry): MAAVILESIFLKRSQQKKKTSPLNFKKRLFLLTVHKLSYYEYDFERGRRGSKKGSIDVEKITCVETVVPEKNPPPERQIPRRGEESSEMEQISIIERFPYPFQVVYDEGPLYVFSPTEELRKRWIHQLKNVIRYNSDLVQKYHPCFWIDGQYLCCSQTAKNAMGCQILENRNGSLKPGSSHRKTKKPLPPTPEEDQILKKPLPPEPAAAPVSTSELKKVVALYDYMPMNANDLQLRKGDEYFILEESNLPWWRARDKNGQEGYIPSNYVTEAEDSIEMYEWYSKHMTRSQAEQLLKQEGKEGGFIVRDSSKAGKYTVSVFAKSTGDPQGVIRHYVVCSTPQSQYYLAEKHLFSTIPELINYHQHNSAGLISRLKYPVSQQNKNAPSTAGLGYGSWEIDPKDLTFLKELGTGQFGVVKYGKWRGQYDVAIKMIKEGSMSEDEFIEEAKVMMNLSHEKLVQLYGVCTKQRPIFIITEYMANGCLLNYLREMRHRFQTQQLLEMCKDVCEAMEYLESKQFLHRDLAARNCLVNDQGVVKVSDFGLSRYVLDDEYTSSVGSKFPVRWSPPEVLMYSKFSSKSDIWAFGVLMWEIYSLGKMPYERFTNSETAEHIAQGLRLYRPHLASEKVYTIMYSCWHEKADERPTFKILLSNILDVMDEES
Method: TMD-8 cells were treated with compounds diluted in 0.2% DMSO, dilution was done according to the following protocol: (1) making 500× stock solution in DMSO from 1 mM by 6-fold dilution, total 8 doses were included; (2) making 2× solution in cell culture medium by transferring 0.5 μl 500× stock solution into 125 μl medium; (3) adding 15 μl of 2× solution to cells for incubation of 6 h.
After 6 h treatment, 10 μl 14×lysis buffer was added to each well; the plate was sealed and incubated for 30 min at room temperature on a plate shaker; Once the cells was lysed, 16 μL of cell lysate were transferred to a PE 384-well HTRF detection plate; 4 μL of pre-mixed HTRF antibodies were added to each well; the plate was covered with a plate sealer, and then spinned at 1000 rpm for 1 min, then incubated overnight at room temperature; the results were read on BMG PheraStar with HTRF protocol (337 nm-665 nm-620 nm).
The inhibition (degradation) percentage of the compound was calculated by the following equation: Inhibition percentage of Compound=100−100×(Signal-low control)/(High control-low control), wherein signal=each test compound group
High control=Cell group with added DMSO and without compound, indicating microplate readings without BTK degradation;
Dmax is the maximum percentage of inhibition (degradation).
The IC50 (DC50) value of a compound can be obtained by fitting the following equation
Y=Bottom+(TOP−Bottom)/(1+((IC50/X)^hillslope))
(§1) wherein, X and Y are known values, and IC50, Hillslope, Top and Bottom are the parameters obtained by fitting with software. Y is the inhibition percentage (calculated from the equation), X is the concentration of the compound; IC50 is the concentration of the compound when the 50% inhibition is reached. The smaller the IC50 value is, the stronger the inhibitory ability of the compound is. Vice versa, the higher the IC50 value is, the weaker the ability the inhibitory ability of the compound is; Hillslope represents the slope of the fitted curve, generally around 1*; Bottom represents the minimum value of the curve obtained by data fitting, which is generally 0%±20%; Top represents the maximum value of the curve obtained by data fitting, which is generally 100%±20%. The experimental data were fitted by calculating and analyzing with Dotmatics data analysis software.

HEK-293 cells = assay: HEK-293 cytotoxicity detection (CellTiter-Glo); assay type: cell-based; settings: 72 h incubation, CellTiter-Glo luminescence, read-out: HEK293
Method: HEK-293 cells were treated with compounds diluted in 0.2% DMSO, dilution was done according to the following protocol: (1) making 500× stock solution in DMSO from 5 mM by 4-fold dilution, total 8 doses were included; (2) making 2× solution in cell culture medium by transferring 0.5 ul 500× stock solution into 125 ul medium; (3) adding 50 ul of 2× solution to cells for incubation of 72 h.
25 μl of the CellTiter-Glo®Reagent [(Promega)—Cat No. G7572] was added to each well in the 96-well plate. The contents were mixed for 2 minutes on an orbital shaker to induce cell lysis. The plate was then allowed to incubate at room temperature for 10 minutes to stabilize luminescent signal. Luminescence was recorded on BMG PheraStar with luminescence protocol.
The inhibition percentage of the compound was calculated by the following equation: Inhibition percentage of Compound=100−100×(Signal-low control)/(High control-low control), wherein signal=each test compound group
High control=Cell group with added DMSO and without compound, indicating cells proliferation with no inhibition;
Imax is the maximum percentage of inhibition.
The IC50 value of a compound can be obtained by fitting the following equation
as §1, with “Wherein,” for “wherein,”

Structure (SMILES)	DC50 (BTK) [nM]	pIC50 (HEK-293 cells; Homo sapiens, 72 h)	pIC50 (HEK-293 cells)
Cc1c(C(=O)Nc2cscn2)ccc(-c2nn3c(c2C(N)=O)Nc2ccc(N4CCN(CC5CCN(c6ccc(CN7CCC(=O)NC7=O)cc6)CC5)CC4)cc2CC3)c1F [Example B98, 7-(4-((1-(4-((2,4-dioxotetrahydropyrimidin-1(2H)-yl)methyl)phenyl)piperidin-4-yl)methyl)piperazin-1-yl)-2-(2-fluoro-3-methyl-4-(thiazol-4-ylcarbamoyl)phenyl)-9,10-dihydro-4H-benzo[d]pyrazolo[1,5-a][1,3]diazepine-3-carboxamide]	1.1	< 5.00	
COc1ccc(Cl)cc1C(=O)NCc1ccc(-c2nn3c(c2C(N)=O)Nc2ccc(N4CCN(CC5CCN(c6ccc(N7CCC(=O)NC7=O)cc6)CC5)CC4)cc2CC3)cc1C [Example C6, 2-(4-((5-chloro-2-methoxybenzamido)methyl)-3-methylphenyl)-7-(4-((1-(4-(2,4-dioxotetrahydropyrimidin-1(2H)-yl)phenyl)piperidin-4-yl)methyl)piperazin-1-yl)-9,10-dihydro-4H-benzo[d]pyrazolo[1,5-a][1,3]diazepine-3-carboxamide]	3.4	< 5.00	
Cc1c(C(=O)Nc2cn(C)cn2)ccc(-c2nn3c(c2C(N)=O)Nc2ccc(N4CCN(CCc5cccc6c5oc(=O)n6C5CCC(=O)NC5=O)CC4)cc2CC3)c1F (stereo not drawn) [Example B90, 7-(4-(2-(3-(2,6-dioxopiperidin-3-yl)-2-oxo-2,3-dihydrobenzo[d]oxazol-7-yl)ethyl)piperazin-1-yl)-2-(2-fluoro-3-methyl-4-((1-methyl-1H-imidazol-4-yl)carbamoyl)phenyl)-9,10-dihydro-4H-benzo[d]pyrazolo[1,5-a][1,3]diazepine-3-carboxamide]	0.706	< 5.00	
Cc1cc(-c2nn3c(c2C(N)=O)Nc2ccc(N4CCN(CC5CCN(c6ccc(N7CCC(=O)NC7=O)cc6)CC5)CC4)cc2CC3)ccc1C(=O)Nc1cc(C(F)(F)F)ccn1 [Example B5, 7-(4-((1-(4-(2,4-dioxotetrahydropyrimidin-1(2H)-yl)phenyl)piperidin-4-yl)methyl)piperazin-1-yl)-2-(3-methyl-4-((4-(trifluoromethyl)pyridin-2-yl)carbamoyl)phenyl)-9,10-dihydro-4H-benzo[d]pyrazolo[1,5-a][1,3]diazepine-3-carboxamide]	1.46	< 5.00	
Cc1c(C(=O)Nc2nccs2)ccc(-c2nn3c(c2C(N)=O)Nc2ccc(N4CCN(CC5CCN(c6ccc(N7CCC(=O)NC7=O)cc6)CC5)CC4)cc2CC3)c1F [Example B83, 7-(4-((1-(4-(2,4-dioxotetrahydropyrimidin-1(2H)-yl)phenyl)piperidin-4-yl)methyl)piperazin-1-yl)-2-(2-fluoro-3-methyl-4-(thiazol-2-ylcarbamoyl)phenyl)-9,10-dihydro-4H-benzo[d]pyrazolo[1,5-a][1,3]diazepine-3-carboxamide]	2.9	< 5.00	
Cc1c(C(=O)Nc2cn(C)cn2)ccc(-c2nn3c(c2C(N)=O)Nc2ccc(N4CCN(CCc5cc(F)c(C6CCC(=O)NC6=O)c(F)c5)CC4)cc2CC3)c1F (stereo not drawn) [Example B88, 7-(4-(4-(2,6-dioxopiperidin-3-yl)-3,5-difluorophenethyl)piperazin-1-yl)-2-(2-fluoro-3-methyl-4-((1-methyl-1H-imidazol-4-yl)carbamoyl)phenyl)-9,10-dihydro-4H-benzo[d]pyrazolo[1,5-a][1,3]diazepine-3-carboxamide]	1.63	< 5.00	
Cc1cccc(NC(=O)c2ncc(-c3nn4c(c3C(N)=O)Nc3ccc(N5CCN(C6CC(c7ccc(C8CCC(=O)NC8=O)cc7)C6)CC5)cc3CC4)cc2C)n1 (stereo in doubt) [Example B35, (S)-7-(4-(3-(4-(2,6-dioxopiperidin-3-yl)phenyl)cyclobutyl)piperazin-1-yl)-2-(5-methyl-6-((6-methylpyridin-2-yl)carbamoyl)pyridin-3-yl)-9,10-dihydro-4H-benzo[d]pyrazolo[1,5-a][1,3]diazepine-3-carboxamide]	10.6		7.01
COc1ccc(C(F)(F)F)cc1C(=O)NCc1ccc(-c2nn3c(c2C(N)=O)Nc2ccc(N4CCN(CC5CCN(c6ccc(N7CCC(=O)NC7=O)cc6)CC5)CC4)cc2CC3)c(OC)c1 [Example C27, 7-(4-((1-(4-(2,4-dioxotetrahydropyrimidin-1(2H)-yl)phenyl)piperidin-4-yl)methyl)piperazin-1-yl)-2-(2-methoxy-4-((2-methoxy-5-(trifluoromethyl)benzamido)methyl)phenyl)-9,10-dihydro-4H-benzo[d]pyrazolo[1,5-a][1,3]diazepine-3-carboxamide]	1.76	6.68	
Cc1ccnc(NC(=O)c2ccc(-c3nn4c(c3C(N)=O)Nc3ccc(N5CCN(CC6CCN(c7ccc(N8CCC(=O)NC8=O)cc7)CC6)CC5)cc3CC4)cc2)c1 [Example B10, 7-(4-((1-(4-(2,4-dioxotetrahydropyrimidin-1(2H)-yl)phenyl)piperidin-4-yl)methyl)piperazin-1-yl)-2-(4-((4-methylpyridin-2-yl)carbamoyl)phenyl)-9,10-dihydro-4H-benzo[d]pyrazolo[1,5-a][1,3]diazepine-3-carboxamide]	4.69	< 5.00	
Cc1cccc(NC(=O)c2ccc(-c3nn4c(c3C(N)=O)Nc3ccc(N5CCN(CC6CCN(c7cc8c(cc7F)CN(C7CCC(=O)NC7=O)C8=O)CC6)CC5)cc3CC4)c(F)c2C)n1 (stereo not drawn) [Example B56, 7-(4-((1-(2-(2,6-dioxopiperidin-3-yl)-6-fluoro-3-oxoisoindolin-5-yl)piperidin-4-yl)methyl)piperazin-1-yl)-2-(2-fluoro-3-methyl-4-((6-methylpyridin-2-yl)carbamoyl)phenyl)-9,10-dihydro-4H-benzo[d]pyrazolo[1,5-a][1,3]diazepine-3-carboxamide]	4.31	< 5.00	
Cc1cccc(N(COC(=O)C(C)(C)C)C(=O)c2ccc(-c3nn4c(c3C(N)=O)Nc3ccc(N5CCN(CC6CCN(c7ccc(N8CCC(=O)N(COC(=O)C(C)(C)C)C8=O)cc7)CC6)CC5)cc3CC4)c(F)c2C)n1 [Example B79, (3-(4-(4-((4-(3-carbamoyl-2-(2-fluoro-3-methyl-4-((6-methylpyridin-2-yl)((pivaloyloxy)methyl)carbamoyl)phenyl)-9,10-dihydro-4H-benzo[d]pyrazolo[1,5-a][1,3]diazepin-7-yl)piperazin-1-yl)methyl)piperidin-1-yl)phenyl)-2,6-dioxotetrahydropyrimidin-1(2H)-yl)methyl pivalate]	3.68	< 5.00	
Cc1cccc(NC(=O)c2ccc(-c3nn4c(c3C(N)=O)Nc3ccc(N5CCN(CC6CCN(c7ccc(N8CCC(=O)N(COC(=O)C(C)(C)C)C8=O)cc7)CC6)CC5)cc3CC4)c(F)c2C)n1 [Example B78, (3-(4-(4-((4-(3-carbamoyl-2-(2-fluoro-3-methyl-4-((6-methylpyridin-2-yl)carbamoyl)phenyl)-9,10-dihydro-4H-benzo[d]pyrazolo[1,5-a][1,3]diazepin-7-yl)piperazin-1-yl)methyl)piperidin-1-yl)phenyl)-2,6-dioxotetrahydropyrimidin-1(2H)-yl)methyl pivalate]	6.27	< 5.00	
